In patent EP0684822B1, “CARBOCYCLIC DEOXYGUANOSINE ANALOGS FOR THE TREATMENT OF VIRAL INFECTIONS” (SOUTHERN RESEARCH INSTITUTE, priority 1993, dated 1994):
Values after ≈ are worked out from the molar mass of the structure shown. Values joined by “and” are separate entries in the source; they are usually repeats but may differ in a detail not shown here. Equal entries are not always repeated.

Columns and labels:
HBV = HBV DNA production and replication in 2.2.15 cell cultures; type: cell-based, Hepatitis B virus (HBV); settings: for INTRACELLULAR HBV DNA INTEG. / INTRACELLULAR HBV DNA MONO. / INTRACELLULAR HBV DNA RI: 24 hours following 10th day of treatment; for HBV DNA IN CULTURE MEDIUM DAY 0: day 0 of treatment
Method: 2'-CdG was tested at three concentrations (50 ng/ml, 500 ng/ml, and 5 ug/ml) against the HBV-producing, human liver cell line, 2.2.15 (Sells et al., J. Virol. 62:2836, 1989). A racemic (D,L) preparation, as well as the purified D and L isomers were tested. For these analyses compounds were tested in duplicate at all concentrations. Ara-AMP and ddG (2'3'-dideoxyguanosine) were used as HBV inhibitory control compounds. […] The nucleoside analog, ddG was used as an additional control compound since ddG has activity against duck hepatitis B virus in chronically infected Peking ducks (Lee et al., Antimicrob. Agents Chemother. 33:336, 1989) and 2'-CdG is also a deoxyguanosine analog.
2.2.15 cells were seeded in 6 well culture plates and grown to confluence over a 10 day period in medium with 5% FBS. Test compounds were then added daily for a continuous 10 day period in medium with 1% dialyzed FBS. […] Compounds were tested, in duplicate cultures, at 3 concentrations covering a 100-fold range. Culture medium (changed daily during the treatment period) was collected and stored for analysis of extracellular (virion) HBV DNA from days 0, 3, 6, and 10 of the treatment period. This allowed for an analysis of the level of HBV virion production during discrete 24 hour intervals and reduced the potential for the buildup of toxic metabolites derived from the test compounds. Treated cells were lysed following the 10th day of treatment for the analysis of intracellular HBV genomic forms. HBV DNA was analyzed in a quantitative manner for (i) overall levels (both extracellular and intracellular DNA) and (ii) the relative rate of HBV replication (intracellular DNA only).
HBV DNA levels were measured by comparison to known amounts of HBV DNA standards applied to every nitrocellulose filter (gel or slot blot) using an AMBIS Beta Scanner. Standard curves, generated by multiple analyses, were used to correlate CPM measurements with relative levels of target HBV DNA. The levels of HBV DNA in each of three classes of intracellular viral genomic forms were individually quantitated: integrated HBV DNA, episomal monomeric genomes and HBV DNA replication intermediates (RI). Integrated HBV DNA was used to normalize the relative amounts of DNA in each lane because the levels of this class of HBV DNA would be expected to remain constant on a per cell basis. The levels of the monomeric HBV genomes and RI were used as an indicator of the relative level of HBV replication.

HSV-TK extract = target: T1, HSV-TK extract (Human herpesvirus 1, UniProt P0DTH5); experiment: Phosphorylated products formed by HSV-TK extract, SAX HPLC; type: biochemical, HSV-1
T1 construct: HSV thymidine kinase (HSV TK) was isolated from HELA (BU25) cells infected with the SW148 strain of HSV-1; made in house; host or cells: HeLa (BU25) thymidine-kinase-deficient cells infected with HSV-1 strain S148/SW148
Method: HSV thymidine kinase activity was measured in 200 µl volumes containing HSV-TK extract obtained as described previously (Belzarini et al., supra), 5.0 mM ATP, 5 mM MgCl2, 9 mM potassium fluoride, 11.2 µg phosphoenol pyruvate, 5 µg of pyruvate kinase, 10 mM β-mercaptoethanol and either 50 µM [3H]-D-, L, or no drug for 60 minutes at 37°C. The reaction was stopped with perchloric acid (PCA), neutralized with potassium bicarbonate, and the reaction products were analyzed by SAX HPLC. The UV absorption spectra of selected peaks were determined with a rapid spectral detector (LKB, Gaithersburg, MD). […] The amount of monophosphate derived from L-2'CdG was about the same as the amount of triphosphate derived from D-2'CdG, and confirmed the results of the disk assay.
HSV extracts were also incubated with 10 µM of either [^3H]-D- or L-2'Cdg, as described above, to measure the metabolism of these entantiomers. After 2 hours the reaction was stopped with perchloric acid (PCA), neutralized with potassium bicarbonate, and the acid-soluble metabolites were separated using SAX HPLC as described above. The results are summarized below.: TABLE 3

HSV-1 TK = target: T2, HSV-1 TK (Human herpesvirus 1, UniProt P0DTH5); experiment: Competitive inhibition of [3H]-thymidine phosphorylation by partially purified HSV-1 TK; type: biochemical
T2 construct: HSV thymidine kinase (HSV TK) was isolated from HELA (BU25) cells infected with the SW148 strain of HSV-1; made in house; host or cells: HeLa (BU25) thymidine-kinase-deficient cells infected with HSV-1 strain S148/SW148
Method: The Ki's were determined from a plot of the slope of each line versus the concentration of the competitor (D-, L, or D,L-2'CdG) and are summarized below: TABLE 2

HSV-1 (strain 377, TK+) = experiment: Antiviral activity against HSV-1; type: cell-based; settings: HSV-1, range of tests
Method: (§1) D-2'-CdG and L-2'-CdG were tested, alongside D,L-2'-CdG, against both HSV-1 (strain 377, TK+; obtained from Dr. Earl Kern, University of Alabama) and HSV-2 (strain MS, TK+; also obtained from Dr. Earl Kern). In these tests (Table 5), Ara-A and acyclovir (ACV) were the positive control drugs. In four tests vs. HSV-1, the antiviral activity (VR) and potency (MIC50) of D-2'-CdG were approximately the same as those of racemic 2-CdG. L-2'-CdG was only modestly active.

HSV-2 (strain MS, TK+) = experiment: Antiviral activity against HSV-2; type: cell-based; settings: HSV-2
Method: as §1
These compounds were tested against HSV-2(TK^+). The VR of ACV was somewhat higher than the VR values of D-2'-CdG and D,L-2'-CdG, but the values of MIC50 of the two forms of 2'-CdG were lower. In addition, experiments comparing the antiviral activity D-2'-CdG with acyclovir against HSV-1 in human foreskin fibroblasts have shown an even greater potency, in favor of D-2'-CdG.

T1 sequence (P0DTH5 whole entry): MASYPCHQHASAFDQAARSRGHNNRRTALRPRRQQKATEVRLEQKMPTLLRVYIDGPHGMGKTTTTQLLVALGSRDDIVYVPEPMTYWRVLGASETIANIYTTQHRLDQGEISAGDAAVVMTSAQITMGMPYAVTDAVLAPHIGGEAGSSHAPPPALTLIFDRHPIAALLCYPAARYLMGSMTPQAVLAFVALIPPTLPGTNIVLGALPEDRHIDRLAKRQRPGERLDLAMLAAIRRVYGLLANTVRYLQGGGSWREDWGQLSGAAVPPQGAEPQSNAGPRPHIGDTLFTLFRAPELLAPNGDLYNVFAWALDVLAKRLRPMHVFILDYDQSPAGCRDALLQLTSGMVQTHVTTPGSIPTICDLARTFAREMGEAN
T2 sequence (P0DTH5 whole entry): as above

## Nc1nc2c(ncn2[C@H]2C[C@@H](CO)[C@H](O)C2)c(=O)[nH]1 [L-2'-CdG, [1S,3R,4S-(1α,3β,4α)]-L-2-Amino-1,9-dihydro-9-[3-hydroxy-4-(hydroxymethyl)cyclopentyl]-6H-purin-6-one]
HBV; 50 ng/ml to 5 ug/ml, 2.2.15 cells
  anti-HBV activity (in words): did not exhibit any significant anti-HBV activity
HBV; 50ng/ml, listed as L, 2-CdG
  INTRACELLULAR HBV DNA INTEG.: 1.3 PG/UG CELL DNA and 0.8 PG/UG CELL DNA
  INTRACELLULAR HBV DNA MONO.: 1.4 PG/UG CELL DNA and 1.1 PG/UG CELL DNA
  INTRACELLULAR HBV DNA RI: 90 PG/UG CELL DNA and 76 PG/UG CELL DNA
  HBV DNA IN CULTURE MEDIUM DAY 0: 48 pg/mL and 67 pg/mL
  HBV DNA IN CULTURE MEDIUM DAY 3: 47 pg/mL and 83 pg/mL
  HBV DNA IN CULTURE MEDIUM DAY 6: 90 pg/mL and 63 pg/mL
  HBV DNA IN CULTURE MEDIUM DAY 10: 90 pg/mL and 61 pg/mL
HBV; 500ng/ml
  INTRACELLULAR HBV DNA MONO.: 1.9 PG/UG CELL DNA
HBV; 500ng/ml, listed as L, 2-CdG
  INTRACELLULAR HBV DNA INTEG.: 1.4 PG/UG CELL DNA and 1.5 PG/UG CELL DNA
  INTRACELLULAR HBV DNA RI: 82 PG/UG CELL DNA and 99 PG/UG CELL DNA
  HBV DNA IN CULTURE MEDIUM DAY 0: 90 pg/mL and 110 pg/mL
  HBV DNA IN CULTURE MEDIUM DAY 3: 63 pg/mL and 83 pg/mL
  HBV DNA IN CULTURE MEDIUM DAY 6: 78 pg/mL and 56 pg/mL
  HBV DNA IN CULTURE MEDIUM DAY 10: 97 pg/mL and 91 pg/mL
HBV; 5 ug/ml, listed as L, 2-CdG
  INTRACELLULAR HBV DNA INTEG.: 1.5 PG/UG CELL DNA and 0.9 PG/UG CELL DNA
  INTRACELLULAR HBV DNA MONO.: 2.0 PG/UG CELL DNA and 1.1 PG/UG CELL DNA
  INTRACELLULAR HBV DNA RI: 97 PG/UG CELL DNA and 86 PG/UG CELL DNA
  HBV DNA IN CULTURE MEDIUM DAY 0: 50 pg/mL and 88 pg/mL
  HBV DNA IN CULTURE MEDIUM DAY 3: 67 pg/mL and 110 pg/mL
  HBV DNA IN CULTURE MEDIUM DAY 6: 77 pg/mL and 120 pg/mL
  HBV DNA IN CULTURE MEDIUM DAY 10: 90 pg/mL and 120 pg/mL
HSV-TK extract; 10 µM [3H] compound, 2 hours
  DPM di: 2050 DPM
  DPM mono: 115000 DPM
  DPM nucleoside: 40944 DPM
  DPM total: 158000 DPM
  DPM tri: 410 DPM
HSV-TK extract; 50 µM, 60 minutes at 37°C, Fig. 3
  major phosphorylated derivative: primarily to the monophosphate form
HSV-1 TK
  Ki: 3.4 µM
HSV-1 (strain 377, TK+)
  VR: 0.8-2.4
HSV-1 (strain 377, TK+); Human alphaherpesvirus 1, read-out: Mic50
  EC50: 39 to 257 µg/mL (≈ 147 to 969 µM)
HSV-2 (strain MS, TK+)
  VR: 0
